In US8338465B2, “Cyclic carboxylic acid rhodanine derivatives for the treatment and prevention of tuberculosis” (priority 2006, dated 2012) one finds IC50 data, which are given here for 43 compounds.

The target in this experiment is T1, dihydrolipoamide acyltransferase (DlaT) (Mycobacterium tuberculosis, UniProt P9WIS7).
T1 sequence (P9WIS7 1-553): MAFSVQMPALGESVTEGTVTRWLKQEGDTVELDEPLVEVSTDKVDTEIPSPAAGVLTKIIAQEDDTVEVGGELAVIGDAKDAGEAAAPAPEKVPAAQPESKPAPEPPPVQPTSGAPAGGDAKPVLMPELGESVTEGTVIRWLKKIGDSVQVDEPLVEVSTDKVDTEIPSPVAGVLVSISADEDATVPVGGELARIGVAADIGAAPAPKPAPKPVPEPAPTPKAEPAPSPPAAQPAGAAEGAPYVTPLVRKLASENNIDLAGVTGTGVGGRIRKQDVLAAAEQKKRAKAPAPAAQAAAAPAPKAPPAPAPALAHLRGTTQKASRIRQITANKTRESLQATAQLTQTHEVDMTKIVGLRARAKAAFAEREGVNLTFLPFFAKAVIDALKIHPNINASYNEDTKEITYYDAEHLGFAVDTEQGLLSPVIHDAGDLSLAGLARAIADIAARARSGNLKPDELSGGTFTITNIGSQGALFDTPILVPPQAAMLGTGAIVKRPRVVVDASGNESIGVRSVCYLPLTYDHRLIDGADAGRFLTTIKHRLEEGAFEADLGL
The experiment is described as follows: DlaT inhibition (Dlat IC50); DTNB peroxidase assay with Lpd, DlaT and AhpD. Type of experiment: biochemical.

Setting [1] is: Table 1, Compounds A1 to A294, read-out: Dlat IC50 category.

Each structure is given as a SMILES string. Where two headings read alike, the source gives them in different places.

Turning to `O=C(O)CN1C(=O)C(=Cc2ccc(-c3ccccc3Cl)o2)SC1=S` [Compound B6], the IC50 (Dlat IC50 category) fell in the range of 11 to 40 µM.
`Cc1ccc(-c2ccc(C=C3SC(=S)N(Nc4ccccc4C(=O)O)C3=O)cc2)cc1` [Compound D56, 2-{5-[1-(4′-methyl-biphenyl-4-yl)-methylidene]-4-oxo-2-thioxo-thiazolidin-3-ylamino}-benzoic acid] displayed an IC50 (Dlat IC50 category) of 11 to 40 µM.
Consider `O=C(O)c1cccc(N2C(=O)C(=Cc3ccc(-c4ccccc4Oc4ccccc4)o3)SC2=S)c1` [Compound A193], for which, under setting [1], the half-inhibitory concentration (IC50) was under 10 µM.
Turning to `CC(C(=O)O)N1C(=O)C(=Cc2ccc(-c3ccc(Cl)cc3)o2)SC1=S` (stereo not shown) [Compound B96], where the note is “Dlat IC50 category”, the IC50 is under 10 µM.
As for `O=C(O)c1cccc(N2C(=O)C(=Cc3ccc(-c4ccccc4[N+](=O)[O-])o3)SC2=S)c1` [Compound A129], under setting [1], the IC50 was over 41 µM.
On to `Cc1ccccc1-c1ccc(C=C2SC(=S)N(c3ccc(F)c(C(=O)O)c3)C2=O)o1` [Compound A257], for which the IC50 under setting [1] fell in the range of 11 to 40 µM.
On to `Cc1c(C(=O)O)cccc1N1C(=O)C(=Cc2ccc(-c3ccc(Cl)c(Cl)c3)o2)SC1=S` [Compound A111], for which the IC50 under setting [1] was under 10 µM.
As to `O=C(O)C(c1ccccc1)N1C(=O)C(=Cc2ncc(-c3cccc(C(F)(F)F)c3)s2)SC1=S` (stereo not shown) [Compound B25], the IC50 (Dlat IC50 category) is under 10 µM.
`CS(=O)(=O)c1ccc(-c2ccc(C=C3SC(=S)N(c4cc(C(=O)O)cc(C(F)(F)F)c4)C3=O)o2)cc1` [Compound A267]: the IC50 under setting [1] is under 10 µM.
As for `O=C(OCCCO)c1cccc(N2C(=O)C(=Cc3ccc(-c4ccccc4Cl)o3)SC2=S)c1` [Compound T2, 3-{5-[1-[5-(2-Chloro-phenyl)-furan-2-yl]-methylidene]-4-oxo-2-thioxo-thiazolidin-3-yl}-benzoic acid 3-hydroxy-propyl ester], the IC50 (Dlat IC50 category, Table 20, Prodrugs (Compounds T1 to T8)) lay in the range of 41 to 80 µM.
Consider `O=C(O)c1ccc(F)c(N2C(=O)C(=Cc3ccc(-c4cccc(-c5ccccc5)c4)o3)SC2=S)c1` [Compound A203], for which the IC50 under setting [1] is under 10 µM.
`C=C(c1ccccc1)c1ccc(-c2ccc(C=C3SC(=S)N(CC(=O)O)C3=O)o2)cc1` [Compound B82] yielded an IC50 (Dlat IC50 category) of under 10 µM.
As for `O=C(O)C1CCCC(N2C(=O)C(=Cc3ccc(-c4ccc(F)cc4F)o3)SC2=S)C1` (stereo not shown) [Compound C7, 3-{5-[1-[5-(2,4-difluoro-phenyl)-furan-2-yl]-methylidene]-4-oxo-2-thioxo-thiazolidin-3-yl}-cyclohexanecarboxylic acid], the IC50 (Dlat IC50 category) was under 10 µM.
`Cc1ccccc1-c1ccc(C=C2SC(=S)N(C3CCCC(C(=O)O)C3)C2=O)s1` (stereo not shown) [Compound C31, 3-{4-oxo-2-thioxo-5-[1-(5-o-tolyl-thiophen-2-yl)-methylidene]-thiazolidin-3-yl}-cyclohexanecarboxylic acid] yielded a concentration for half-maximal inhibition (IC50) (Dlat IC50 category) of 11 to 40 µM.
As for `O=C(O)c1cc(N2C(=O)C(=Cc3ccc(-c4ccccc4Cl)o3)SC2=S)cc([N+](=O)[O-])c1` [Compound A88], the IC50 under setting [1] is under 10 µM.
Consider `O=C(O)c1cc(C(=O)O)cc(N2C(=O)C(=Cc3ccc(-c4ccccc4F)o3)SC2=S)c1` [Compound A231], for which, under setting [1], the IC50 was over 41 µM.
Compound `CSc1cccc(-c2ccc(C=C3SC(=S)N(C4CCC(C(=O)O)CC4)C3=O)o2)c1` (stereo not shown) [Compound C63, 4-{5-[1-[5-(3-methylsulfanyl-phenyl)-furan-2-yl]-methylidene]-4-oxo-2-thioxo-thiazolidin-3-yl}-cyclohexanecarboxylic acid] had an IC50 (Dlat IC50 category) of under 10 µM.
For the compound `COc1ccc(-c2ccc(C=C3SC(=S)N(C4CCCC(C(=O)O)C4)C3=O)o2)c(C)c1` (stereo not shown) [Compound C9, 3-{5-[1-[5-(2-methyl-4-methoxy-phenyl)-furan-2-yl]-methylidene]-4-oxo-2-thioxo-thiazolidin-3-yl}-cyclohexanecarboxylic acid], the IC50 (Dlat IC50 category) was 11 to 40 µM.
As for `CN(C)c1ccc(-c2ccc(C=C3SC(=S)N(CC(=O)O)C3=O)o2)cc1` [Compound B84], for the setting “Dlat IC50 category”, the IC50 was in the range of 11 to 40 µM.
Turning to `O=C(O)c1cccc(N2C(=O)C(=Cc3ccc(-c4ccc(C5CCCCC5)cc4)o3)SC2=S)c1` [Compound A56], under setting [1], the IC50 is under 10 µM.
`CSc1cccc(-c2ccc(C=C3SC(=S)N(C4CCCC(C(=O)O)C4)C3=O)o2)c1` (stereo not shown) [Compound C62, 3-{5-[1-[5-(3-methylsulfanyl-phenyl)-furan-2-yl]-methylidene]-4-oxo-2-thioxo-thiazolidin-3-yl}-cyclohexanecarboxylic acid] yielded an IC50 (Dlat IC50 category) of under 10 µM.
Take `O=C(O)c1cccc(N2C(=O)C(=Cc3ccc(-c4ccc(C(=O)c5ccccc5)cc4)o3)SC2=S)c1` [Compound A48]: under setting [1], the IC50 was under 10 µM.
Under “Dlat IC50 category”, `O=C(O)c1ccccc1NN1C(=O)C(=Cc2ccc(-c3ccccc3F)s2)SC1=S` [Compound D36, 2-{4-oxo-2-thioxo-5-[1-(5-2-fluoro-thiophen-2-yl)-methylidene]-thiazolidin-3-ylamino}-benzoic acid] showed an IC50 of under 10 µM.
As to `O=C(O)CCCCCN1C(=O)C(=Cc2ccc(-c3ccc(Cc4ccccc4)cc3)o2)SC1=S` [Compound B33], for the setting “Dlat IC50 category”, the half-inhibitory concentration (IC50) is 11 to 40 µM.
`O=C(O)c1ccc(Cl)c(N2C(=O)C(=Cc3ccc(-c4c(Cl)cccc4Cl)o3)SC2=S)c1` [Compound A110]: the IC50 under setting [1] was under 10 µM.
On to `CN(C)c1ccc(-c2ccc(C=C3SC(=S)N(Nc4ccccc4C(=O)O)C3=O)o2)cc1` [Compound D31, 2-{5-[5-(4-Dimethylamino-phenyl)-furan-2-ylmethylene]-4-oxo-2-thioxo-thiazolidin-3-ylamino}-benzoic acid], for which the IC50 (Dlat IC50 category) is 11 to 40 µM.
For the compound `O=C(O)c1ccc(N2C(=O)C(=Cc3ccc(-c4ccc(Oc5ccccc5)cc4)o3)SC2=S)cc1` [Compound A14], under setting [1], the IC50 fell in the range of 11 to 40 µM.
On the same count and under the same terms, the figure for `O=C(O)c1cccc(N2C(=O)C(=Cc3ccc(-c4ccccc4F)s3)SC2=S)c1` [Compound A196] is under 10 µM; for `O=C(O)c1ccc(F)c(N2C(=O)C(=Cc3nc(-c4ccccc4)cs3)SC2=S)c1` [Compound A252] it is 11 to 40 µM.
`CCCc1ccc(-c2ccc(C=C3SC(=S)N(C4CCC(C(=O)O)CC4)C3=O)o2)cc1` (stereo not shown) [Compound C80, 4-{5-[1-[5-(4-propyl-phenyl)-furan-2-yl]-methylidene]-4-oxo-2-thioxo-thiazolidin-3-yl}-cyclohexanecarboxylic acid]: the half-maximal inhibitory concentration (IC50) (Dlat IC50 category) lay within 11 to 40 µM.
The same measure, in the same setting: then `O=C(O)C(Cc1ccccc1)N1C(=O)C(=Cc2ccc(-c3ccccc3Cl)o2)SC1=S` (stereo not shown) [Compound B41], with under 10 µM; and `COc1ccc(-c2ccc(C=C3SC(=S)N(C4CCC(C(=O)O)CC4)C3=O)o2)cc1F` (stereo not shown) [Compound C53, 4-{5-[1-[5-(3-fluoro-4-methoxy-phenyl)-furan-2-yl]-methylidene]-4-oxo-2-thioxo-thiazolidin-3-yl}-cyclohexanecarboxylic acid], with under 10 µM.
Consider `COc1ccc(C)cc1-c1ccc(C=C2SC(=S)N(c3cccc(C(=O)O)c3)C2=O)o1` [Compound A253], for which, under setting [1], the IC50 is under 10 µM.
Consider `O=C(O)c1ccccc1NN1C(=O)C(=Cc2ccc(-c3ccccc3Oc3ccccc3)o2)SC1=S` [Compound D33, 2-{4-oxo-5-[1-[5-(2-phenoxy-phenyl)-furan-2-yl]-methylidene]-2-thioxo-thiazolidin-3-ylamino}-benzoic acid], for which the half-inhibitory concentration (IC50) (Dlat IC50 category) is under 10 µM.
Consider `O=C(O)c1ccc(Cl)c(N2C(=O)C(=Cc3ccc(-c4ccccc4Cl)o3)SC2=S)c1` [Compound A71], for which the IC50 under setting [1] was under 10 µM.
With `O=C(O)c1ccc(Cl)c(N2C(=O)C(=Cc3ccc(-c4cccc([N+](=O)[O-])c4)o3)SC2=S)c1` [Compound A128], the IC50 under setting [1] was under 10 µM.
On to `O=C(O)c1cccc(N2C(=O)C(=Cc3ccc(-c4ccc([N+](=O)[O-])cc4)o3)SC2=S)c1` [Compound A130], for which, under setting [1], the half-inhibitory concentration (IC50) fell in the range of 11 to 40 µM.
Regarding `CC(C)(C)c1ccc(-c2ccc(C=C3SC(=S)N(c4ccc(O)c(C(=O)O)c4)C3=O)o2)cc1` [Compound A59], the IC50 under setting [1] was under 10 µM.
For the compound `O=C(O)C1CCCC(N2C(=O)C(=Cc3ccc(-c4ccccc4Cl)s3)SC2=S)C1` (stereo not shown) [Compound C32, 3-{4-oxo-2-thioxo-5-[1-(5-(2-chloro-phenyl)-thiophen-2-yl)-methylidene]-thiazolidin-3-yl}-cyclohexanecarboxylic acid], for the setting “Dlat IC50 category”, the IC50 was under 10 µM.
The same measure, in the same setting: then `CNS(=O)(=O)c1ccc(-c2ccc(C=C3SC(=S)N(C4CCCC(C(=O)O)C4)C3=O)o2)cc1` (stereo not shown) [Compound C83, 3-{5-[5-(4-Methylsulfamoyl-phenyl)-furan-2-ylmethylene]-4-oxo-2-thioxo-thiazolidin-3-yl}-cyclohexanecarboxylic acid], with 11 to 40 µM; and `CC(=O)c1ccc(-c2ccc(C=C3SC(=S)N(C4CCCC(C(=O)O)C4)C3=O)o2)cc1` (stereo not shown) [Compound C40, 3-{5-[1-[5-(4-acetyl-phenyl)-furan-2-yl]-methylidene]-4-oxo-2-thioxo-thiazolidin-3-yl}-cyclohexanecarboxylic acid], with under 10 µM.
Turning to `O=C(O)c1cc(N2C(=O)C(=Cc3ccc(-c4ccccc4F)o3)SC2=S)cc(C(F)(F)F)c1` [Compound A222], the IC50 under setting [1] is under 10 µM.
`CCCCc1ccc(-c2ccc(C=C3SC(=S)N(C4CCC(C(=O)O)CC4)C3=O)o2)cc1` (stereo not shown) [Compound C78, 4-{5-[1-[5-(4-butyl-phenyl)-furan-2-yl]-methylidene]-4-oxo-2-thioxo-thiazolidin-3-yl}-cyclohexanecarboxylic acid] came in with an IC50 (Dlat IC50 category) of under 10 µM.
